The record followed here is paper PMC11173382, “In Vitro Investigations into the Potential Drug Interactions of Pseudoginsenoside DQ Mediated by Cytochrome P450 and Human Drug Transporters” (Molecules, 2024).

Molecules are shown by their SMILES.

For the data set, the target named is T1, hOATP1B1 (Homo sapiens, UniProt Q9Y6L6).
T1 sequence (Q9Y6L6 1-691): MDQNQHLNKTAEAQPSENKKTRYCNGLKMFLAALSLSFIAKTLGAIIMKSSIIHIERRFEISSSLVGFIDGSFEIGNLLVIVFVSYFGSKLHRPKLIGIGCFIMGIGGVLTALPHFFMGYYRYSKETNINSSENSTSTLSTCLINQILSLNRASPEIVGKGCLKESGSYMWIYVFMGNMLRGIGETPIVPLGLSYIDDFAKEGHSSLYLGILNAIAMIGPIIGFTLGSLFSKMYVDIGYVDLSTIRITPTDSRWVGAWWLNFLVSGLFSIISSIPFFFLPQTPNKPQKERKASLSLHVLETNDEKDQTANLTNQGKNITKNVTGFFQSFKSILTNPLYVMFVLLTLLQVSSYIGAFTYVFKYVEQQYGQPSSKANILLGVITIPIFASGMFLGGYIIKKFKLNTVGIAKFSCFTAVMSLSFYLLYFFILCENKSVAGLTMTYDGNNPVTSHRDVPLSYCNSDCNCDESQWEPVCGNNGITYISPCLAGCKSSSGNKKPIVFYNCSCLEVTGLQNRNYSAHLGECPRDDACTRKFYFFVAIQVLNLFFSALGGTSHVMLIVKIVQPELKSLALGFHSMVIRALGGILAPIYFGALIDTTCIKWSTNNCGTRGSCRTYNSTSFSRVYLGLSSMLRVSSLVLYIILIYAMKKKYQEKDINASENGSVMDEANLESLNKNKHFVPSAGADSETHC
Kind of data set: Substrates uptake assay, HEK293A-OATP1B1 cells (3H-ES). The format is in vitro ADME. As to conditions: for Transport activity of OATP1B1 (main text: percentage inhibition): negative control = 100%. The source says:
Drug transporters mediate the cellular uptake and efflux of their substrates. Therefore, cell lines overexpressing a drug transporter can be utilized to investigate inhibitors of the transporter by assessing changes in substrate uptake. For each drug transporter, we selected a well-characterized inhibitor as the positive control. Radiolabeled substrates were used to indicate the decrease in transport efficiency when the drug transporters were inhibited by PDQ or the control inhibitors.
The concentrations of the control drugs and the substrates were stated in the assay details. Working solutions of the control inhibitors, the radiolabeled substrates, and each dose of PDQ were prepared at 200 times (200×) more concentrated solutions with DMSO for further dilution.
Transporter-overexpressed cell lines. Human organic anion transporter-overexpressed cell lines MDCKII-OAT1 and S2-OAT3, human organic anion transport polypeptide-overexpressed cell lines HEK293A-OATP1B1 and HEK293A-OATP1B3, human organic cation transporter 2-overexpressed cell line S2-OCT2, and human multi-drug resistance protein MDR1 (or P-gp)-overexpressed cell line MDCKII-MDR1 were gifts from Japan Fuji Biomedical Co., Ltd. (Fuji, Shizuoka Prefecture, Japan). Breast cancer resistance protein-overexpressed vesicles (sf9-BCRP vesicle) were purchased from GenoMembrane Co., Ltd. (Yokohama, Kanagawa, Japan).
Substrates uptake assay. In this assay, we studied the inhibition of PDQ against transporters OAT1, OAT3, OCT2, OATP1B1 and OATP1B3 with MDCKII-OAT1, S2-OAT3, S2-OCT2, HEK293A-OATP1B1and HEK293A-OATP1B3 cells, respectively. The radiolabeled substrates for OAT1, OAT3, OATP1B1, OATP1B3 and OCT2 were […], respectively (Table 5). Probenecid ([…]) was the positive control inhibitor of OAT1 and OAT3, while rifampicin ([…]) served as the control drug of OATP1B1 and OATP1B3. For OCT2, we used […] cimetidine to compare with the inhibitory effect of PDQ. Two times (2×) more concentrated working solutions of the drugs and the substrate were prepared with Dulbecco’s phosphate-buffered saline (DPBS, Gibco, Grand Island, NY, USA.). Then, an equal volume of 2× drug solution and 2× radiolabeled substrate solution were mixed as the working mix. All reagents were pre-warmed to 37 °C.
The cells were digested with 0.05% trypsin/EDTA. The density of the single-cell suspension was adjusted to 2.0 × 10^5 cells/mL for S2 cells and to 1.5 × 10^5 cells/mL for MDCK II and HEK293A cells. The cell suspension was then added to the reservoirs of the 24-well plate for culture until full confluency. The medium in the wells was removed, and the wells were washed with DPBS. Then, the plate was incubated for 10 min with pre-warmed DPBS in the wells. After removing DPBS, […] of working mix was added to each well to initiate the substrate uptake process. The reaction time was 5 min for S2-OCT2 cells, while the other four types of cells were incubated with the reaction mix for 2 min. Cold DPBS was used to terminate the substrate transportation. To each well, […] NaOH ([…]) was added to lyse the cells. Then, […] cell lysate was transferred to the counting vials, and 3 mL scintillation cocktail (Aquasol-2, PerkinElmer, Waltham, MA, USA) was added. […] Each sample was replicated three times (N = 3).
In = [100 × (U − U0)/(Uc − U0)]%(3)
The results were expressed as mean ± standard deviation (SD) and analyzed with GraphPad Prism 8.0 software (CA, USA). The IC50 of PDQ was curve-fitted with the FORECAST function. Statistical significance was calculated using a two-tailed test, and a p value < 0.05 was considered as significant.

With `CC(C)(O)[C@@H]1CC[C@@](C)([C@H]2CC[C@]3(C)[C@@H]2[C@H](O)C[C@@H]2[C@@]4(C)CC[C@H](O)C(C)(C)[C@@H]4CC[C@]23C)O1` [PDQ, (20S,24S)-dammar-20,24-epoxy-3β, 12β, 25-triol], the “DPM (3H-ES uptake by OATP1B1)” value is given as 15255.0±875.8 DPM (inhibitor 0.1 μM); 16354.0±875.5 DPM (inhibitor 0.3 μM); 14584.0±689.5 DPM (inhibitor 1 μM); 13110.3±561.2 DPM (inhibitor 3 μM); 8070.3±754.4 DPM (inhibitor 10 μM); 5983.3±318.4 DPM (inhibitor 30 μM). For the same molecule, the “Transport activity of OATP1B1 (main text: percentage inhibition)” value by setting is: (inhibitor 0.1 μM) 100.9±5.8%; (inhibitor 0.3 μM) 108.1±5.8%; (inhibitor 1 μM) 96.4±4.6%; (inhibitor 3 μM) 86.7±3.7%; (inhibitor 10 μM) 53.4±5.0%.
